{"source": "patent US20140134230A1", "about": "“TRANSDERMAL THERAPEUTIC SYSTEM” (priority 2005, published 2014)", "key": {"[1]": {"assay": "Saturation solubility of rivastigmine free base in the silicone adhesive", "format": "physicochemical"}, "[2]": {"assay": "Rivastigmine's biopharmaceutical properties in humans", "format": "in vivo", "from_the_text": "Little has been published in detail on rivastigmine's biopharmaceutical properties in humans. […] It is subject to pre-systemic and systemic metabolism."}}}
{"smiles": "CCN(C)C(=O)Oc1cccc([C@H](C)N(C)C)c1", "note": "[rivastigmine]", "values": [{"measurement": "saturation solubility in the silicone adhesive", "setting": "[1]", "value": "about 5 %-wt."}, {"measurement": "absorption", "setting": "[2]", "value": "rapidly and completely absorbed"}, {"measurement": "metabolism", "setting": "[2]", "value": "metabolised mainly through hydrolysis by esterases"}]}
